# Source: US5834487A, “Inhibition of 26S and 20S proteasome by indanones” (CV Therapeutics, priority 1996, dated 1998)
# Molecular target: T1, 20S catalytic subunit of the proteasome (multicatalytic proteinase complex) (Bos taurus, UniProt Q32KL2)
# T1 construct: was purified to homogeneity from bovine brain according to published methods; from tissue; host or cells: bovine brain
# Assay: 20S proteasome chymotryptic activity, fluorogenic peptide cleavage
# Format: biochemical, bovine
# Details: 50 μM succinyl-leu-leu-val-tyr-7-amino-4-methyl coumarin, 15 minutes at 37° C, pH7.5
# Experimental: Compounds of this invention prepared according to the method of Example 1 were tested as follows. The 20S catalytic subunit of the proteasome (also known as the multicatalytic proteinase complex) was purified to homogeneity from bovine brain according to published methods (Wilk S. and Orlowski, M, 40 842 J. Neurochem (1983)). The chymotryptic activity of the complex is measured by the increase in fluorescence following cleavage of the substrate peptide succinyl-leucine-leucine-valine-tyrosine-7-amino-4-methyl coumarin. The standard in vitro assay consists of 2 μg 20S proteasome, 0.1-100 μg/ml proteasome inhibitor in 200 μl 50 mM HEPES, containing 0.1% sodium dodecyl sulphate, pH7.5. The proteolytic reaction is initiated by the addition of 50 μM fluorogenic peptide substrate and allowed to progress for 15 minutes at 37° C. The reaction is terminated by the addition of 100 μl of 100 mM acetate buffer, pH4.0. The rate of proteolysis is directly proportional to the amount of liberated aminomethylcoumarin which is measured by fluorescent spectroscopy (EX 370 nm, EM 430 nm).
row,Structure (SMILES),IC50 [µg/mL]
1,COc1ccc2c(c1)C(CC(=O)NC(CC(C)C)C(N)=O)CC2=O (mixture of isomers) [Compound 1],5
2,COc1ccc2c(c1)C(CC(=O)NC(CC(C)C)C(=O)NC(CC(C)C)C(N)=O)CC2=O (mixture of isomers) [Compound 2],1
3,COc1ccc2c(c1)C(CC(=O)NC(CC(C)C)C(N)=O)CC2=O (mixture of isomers) [Compound 3],> 10
4,COc1ccc2c(c1)C(CC(=O)NC(CC(C)C)C(=O)NC(Cc1c[nH]cn1)C(N)=O)CC2=O (mixture of isomers) [Compound 4],> 10
5,COc1ccc2c(c1)C(CC(=O)NC(CC(C)C)C(=O)NC(CC(C)C)C(N)=O)CC2=O (mixture of isomers) [Compound 5],> 10
6,COc1ccc2c(c1)C(CC(=O)NC(CC(C)C)C(=O)NC(CC(C)C)C(N)=O)CC2=O (mixture of isomers) [Compound 6],> 10
7,COc1ccc2c(c1)C(CC(=O)NC(CC(C)C)C(=O)NC(CC(C)C)C(N)=O)CC2=O (mixture of isomers) [Compound 7],> 10
8,CCCCC(NC(=O)CC1CC(=O)c2ccc(OC)cc21)C(N)=O (mixture of isomers) [Compound 8],> 10
9,CCCCC(NC(=O)CC1CC(=O)c2ccc(OC)cc21)C(N)=O (mixture of isomers) [Compound 9],> 10
10,CCCC(NC(=O)CC1CC(=O)c2ccc(OC)cc21)C(N)=O (mixture of isomers) [Compound 10],> 10
11,COc1ccc2c(c1)C(CC(=O)NC(CC(C)C)C(=O)NC(C)(C)C(N)=O)CC2=O (mixture of isomers) [Compound 11],> 10
12,COc1ccc2c(c1)C(CC(=O)NC(Cc1ccccc1)C(N)=O)CC2=O (mixture of isomers) [Compound 12],> 10
13,COc1ccc2c(c1)C(CC(=O)NC(CC1CCCCC1)C(=O)NC(CC(C)C)C(N)=O)CC2=O (mixture of isomers) [Compound 13],> 10
14,COc1ccc2c(c1)C(CC(=O)NC(Cc1ccccc1)C(=O)NC(CC(C)C)C(N)=O)CC2=O (mixture of isomers) [Compound 14],> 10
15,CCCCC(NC(=O)CC1CC(=O)c2ccc(OC)cc21)C(=O)NC(CC(C)C)C(N)=O (mixture of isomers) [Compound 15],> 10
16,CCCCC(NC(=O)CC1CC(=O)c2ccc(OC)cc21)C(=O)NC(CC(C)C)C(N)=O (mixture of isomers) [Compound 16],> 10
17,COc1ccc2c(c1)C(CC(=O)NC(CC(C)C)C(=O)NC(CC(C)C)C(=O)NCC(N)=O)CC2=O (mixture of isomers) [Compound 17],> 10
18,COc1ccc2c(c1)C(CC(=O)NC(CC(C)C)C(=O)NC(CC(C)C)C(=O)NCC(N)=O)CC2=O (mixture of isomers) [Compound 18],5
19,COc1ccc2c(c1)C(CC(=O)NC(CC(C)C)C(=O)NC(CC(C)C)C(=O)NCC(N)=O)CC2=O (mixture of isomers) [Compound 19],> 10
20,COc1ccc2c(c1)C(CC(=O)NC(CC(C)C)C(=O)NC(CC(C)C)C(=O)NCC(N)=O)CC2=O (mixture of isomers) [Compound 21],0.1
21,CCCCC(NC(=O)CC1CC(=O)c2ccc(OC)cc21)C(=O)NC(CC(C)C)C(N)=O (mixture of isomers) [Compound 22],> 10
22,CCCCC(NC(=O)CC1CC(=O)c2ccc(OC)cc21)C(=O)NC(CC(C)C)C(N)=O (mixture of isomers) [Compound 23],> 10
23,COc1ccc2c(c1)C(CC(=O)NC(Cc1ccccc1)C(N)=O)CC2=O (mixture of isomers) [Compound 24],> 10
24,COc1ccc2c(c1)C(CC(=O)N1Cc3ccccc3CC1C(N)=O)CC2=O (mixture of isomers) [Compound 25],> 10
25,COc1ccc2c(c1)C(CC(=O)N1Cc3ccccc3CC1C(=O)NC(CC(C)C)C(N)=O)CC2=O (mixture of isomers) [Compound 26],> 10
26,COc1ccc2c(c1)C(CC(=O)NC(Cc1ccccc1)C(=O)NC(CC(C)C)C(N)=O)CC2=O (mixture of isomers) [Compound 27],10
27,COc1ccc2c(c1)C(CC(=O)NC(CC(C)C)C(=O)NC(C)(C)C(N)=O)CC2=O (mixture of isomers) [Compound 28],> 10
28,COc1ccc2c(c1)C(CC(=O)NC(CC1CCCCC1)C(N)=O)CC2=O (mixture of isomers) [Compound 29],> 10

row,Structure (SMILES),IC50 [µg/mL]
1,COc1ccc2c(c1)C(CC(=O)NC(C(=O)NC(CC(C)C)C(N)=O)C(C)C)CC2=O (mixture of isomers) [Compound 30],> 10
2,COc1ccc2c(c1)C(CC(=O)N1CCCC1C(=O)NC(CC(C)C)C(N)=O)CC2=O (mixture of isomers) [Compound 31],10
3,COc1ccc2c(c1)C(CC(=O)NC(CC(C)C)C(=O)NC(C(N)=O)C(C)C)CC2=O (mixture of isomers) [Compound 33],> 10
4,COc1ccc2c(c1)C(CC(=O)NC(C(=O)NC(C(N)=O)C(C)C)C(C)C)CC2=O (mixture of isomers) [Compound 34],> 10
5,COc1ccc2c(c1)C(CC(=O)NC(CC1CCCCC1)C(=O)NC(CC1CCCCC1)C(N)=O)CC2=O (mixture of isomers) [Compound 35],> 10
6,COc1ccc2c(c1)C(CC(=O)NC(C(N)=O)c1ccccc1)CC2=O (mixture of isomers) [Compound 36],> 10
7,COc1ccc2c(c1)C(CC(=O)NC(C(=O)NC(CC(C)C)C(N)=O)c1ccccc1)CC2=O (mixture of isomers) [Compound 37],> 10
8,COc1ccc2c(c1)C(CC(=O)NC(CC(C)C)C(=O)NCC(=O)NCC(N)=O)CC2=O (mixture of isomers) [Compound 41],> 10
9,COc1ccc2c(c1)C(CC(=O)NCC(=O)NC(CC(C)C)C(=O)NCC(N)=O)CC2=O (mixture of isomers) [Compound 42],> 10
10,CCCCC(NC(=O)CC1CC(=O)c2ccc(OC)cc21)C(=O)NC(CC(C)C)C(=O)NCC(N)=O (mixture of isomers) [Compound 43],> 10
11,CCCC(NC(=O)CC1CC(=O)c2ccc(OC)cc21)C(=O)NC(CC(C)C)C(=O)NCC(N)=O (mixture of isomers) [Compound 44],> 10
12,COc1ccc2c(c1)C(CC(=O)NC(Cc1ccccc1)C(=O)NC(CC(C)C)C(=O)NCC(N)=O)CC2=O (mixture of isomers) [Compound 45],> 10
13,COc1ccc2c(c1)C(CC(=O)NC(CC1CCCCC1)C(=O)NC(CC(C)C)C(=O)NCC(N)=O)CC2=O (mixture of isomers) [Compound 46],> 10
14,COc1ccc2c(c1)C(CC(=O)NC(C(=O)NC(CC(C)C)C(=O)NCC(N)=O)C(C)C)CC2=O (mixture of isomers) [Compound 47],> 10
15,COc1ccc2c(c1)C(CC(=O)NC(C(=O)NC(CC(C)C)C(=O)NCC(N)=O)c1ccccc1)CC2=O (mixture of isomers) [Compound 48],> 10
16,COc1ccc2c(c1)C(CC(=O)N1CCCC1C(=O)NC(CC(C)C)C(=O)NCC(N)=O)CC2=O (mixture of isomers) [Compound 49],> 10
17,COc1ccc2c(c1)C(CC(=O)NC(CC(C)C)C(=O)NC(C)C(N)=O)CC2=O (mixture of isomers) [Compound 52],> 10
18,COc1ccc2c(c1)C(CC(=O)NC(CC(C)C)C(=O)NC(C)C(N)=O)CC2=O (mixture of isomers) [Compound 53],> 10
19,COc1ccc2c(c1)C(CC(=O)NC(CC(C)C)C(=O)N1CCCC1C(N)=O)CC2=O (mixture of isomers) [Compound 54],> 10
20,COc1ccc2c(c1)C(CC(=O)N1CCCC1C(N)=O)CC2=O (mixture of isomers) [Compound 55],> 10
21,COc1ccc2c(c1)C(CC(=O)NC(CC(C)C)C(=O)NC(Cc1ccccc1)C(N)=O)CC2=O (mixture of isomers) [Compound 56],> 10
22,CCCC(NC(=O)CC1CC(=O)c2ccc(OC)cc21)C(=O)NC(CC(C)C)C(N)=O (mixture of isomers) [Compound 57],> 10
23,CCCC(NC(=O)CC1CC(=O)c2ccc(OC)cc21)C(=O)NC(CC(C)C)C(N)=O (mixture of isomers) [Compound 58],> 10
24,COc1ccc2c(c1)C(CC(=O)NC(C)C(=O)NC(CC(C)C)C(N)=O)CC2=O (mixture of isomers) [Compound 59],> 10
25,COc1ccc2c(c1)C(CC(=O)N1Cc3ccccc3CC1C(=O)NC(CC(C)C)C(N)=O)CC2=O (mixture of isomers) [Compound 60],> 10
26,COc1ccc2c(c1)C(CC(=O)NC(CO)C(=O)NC(CC(C)C)C(N)=O)CC2=O (mixture of isomers) [Compound 61],> 10
27,COc1ccc2c(c1)C(CC(=O)NC(CC(C)C)C(=O)N1CCCC1C(=O)NCC(N)=O)CC2=O (mixture of isomers) [Compound 92],> 10
